Here are results for seven compounds from patent US8802597B2, “Herbicidal pyrimidines” (E I du Pont de Nemours and Company, priority 2003, dated 2014).

What all share (assay): Test A pre/postemergence
Holding throughout (type): in vivo

In test [1] the test system is redroot pigweed (Amaranthus retroflexus). In a few lines:
(§1)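 Compared with untreated controls, treated plants were visually rated for injury on a 0 (none) to 100 (complete control) scale about ten days after spraying. Pre- and postemergence applications used one solvent/surfactant formulation; postemergence plants measured 2–10 cm.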

Test [2] deals with velvetleaf (Abutilon theophrasti). The procedure, abridged: as §1
Test [3] deals with giant foxtail (Setaria faberi). In a few lines:
as §1

The subject of test [4] is crabgrass (Digitaria sanguinalis). The procedure, abridged: as §1
Test [5] deals with morningglory (Ipomoea spp.). In a few lines:
as §1

For test [6], the system named is barnyardgrass (Echinochloa crus-galli). The procedure, abridged: as §1
The mark [7] stands for this setting: Postemergence, 125 g ai/ha, 0 to 100 scale (0 no effect, 100 complete control).
[8] abbreviates: Postemergence, 500 g ai/ha, 0 to 100 scale (0 no effect, 100 complete control).
The mark [9] stands for this setting: Preemergence, 125 g ai/ha, 0 to 100 scale where 0 is no effect and 100 is complete control, approximately ten days.
Where [10] appears, read: Preemergence, 500 g ai/ha, 0 to 100 scale where 0 is no effect and 100 is complete control, approximately ten days.

Molecules are shown by their SMILES.

Consider `CS(=O)(=O)NC(=O)c1nc(C2CC2)nc(N)c1Cl` [Compound 132], for which the “Plant response rating, Pigweed” value in test [1] (setting [7]) is on record as 50; in test [1] (setting [8]), 65; in test [1] (setting [9]) it was 15; in test [1] (setting [10]) it was 65. Moreover, the “Plant response rating, Velvetleaf” value in test [2] (setting [7]) came to 50; in test [2] (setting [8]), 60; in test [2] (setting [9]), 0; in test [2] (setting [10]), 5. Also, the “Plant response rating, Foxtail, Giant” value is 0 in test [3] (setting [7]), 5 in test [3] (setting [8]), 0 in test [3] (setting [9]) and 0 in test [3] (setting [10]). The “Plant response rating, Crabgrass” value came out at 5 in test [4] (setting [7]), 10 in test [4] (setting [8]), 0 in test [4] (setting [9]) and 0 in test [4] (setting [10]). Further, the “Plant response rating, Morningglory” value is 45 in test [5] (setting [7]), 50 in test [5] (setting [8]), 0 in test [5] (setting [9]) and 0 in test [5] (setting [10]). Moreover, the “Plant response rating, Barnyardgrass” value in test [6] (setting [7]) stood at 0; in test [6] (setting [8]), 10; in test [6] (setting [9]) it was 0; in test [6] (setting [10]) it was 0.

For `CCCCOCCOC(=O)c1nc(C2CC2)nc(N)c1Cl` [Compound 139], the “Plant response rating, Pigweed” value came out at 90 in test [1] (setting [7]), 100 in test [1] (setting [8]), 90 in test [1] (setting [9]) and 100 in test [1] (setting [10]). The “Plant response rating, Velvetleaf” value in test [2] (setting [7]) is 85; in test [2] (setting [8]) it was 90; in test [2] (setting [9]), 90; in test [2] (setting [10]), 90. In addition, the “Plant response rating, Foxtail, Giant” value in test [3] (setting [7]) turned out to be 80; in test [3] (setting [8]), 80; in test [3] (setting [9]), 80; in test [3] (setting [10]), 90. The “Plant response rating, Crabgrass” value in test [4] (setting [7]) turned out to be 60; in test [4] (setting [8]), 70; in test [4] (setting [9]), 75; in test [4] (setting [10]) it was 90. In addition, the “Plant response rating, Morningglory” value in test [5] (setting [7]) turned out to be 80; in test [5] (setting [8]), 90; in test [5] (setting [9]), 90; in test [5] (setting [10]), 100. Further, the “Plant response rating, Barnyardgrass” value in test [6] (setting [7]) is 80; in test [6] (setting [8]) it was 90; in test [6] (setting [9]), 75; in test [6] (setting [10]), 90.

Regarding `Nc1nc(C2CC2)nc(C(=O)OCC2CCCO2)c1Cl` (stereo not drawn) [Compound 150], the “Plant response rating, Pigweed” value in test [1] (setting [7]) was 90; in test [1] (setting [8]), 90; in test [1] (setting [9]) it was 70; in test [1] (setting [10]), 95. Also, the “Plant response rating, Velvetleaf” value is 90 in test [2] (setting [7]), 100 in test [2] (setting [8]), 75 in test [2] (setting [9]) and 95 in test [2] (setting [10]). The “Plant response rating, Foxtail, Giant” value in test [3] (setting [7]) was 80; in test [3] (setting [8]) it was 85; in test [3] (setting [9]) it was 50; in test [3] (setting [10]), 80. The “Plant response rating, Crabgrass” value came to 65 in test [4] (setting [7]), 80 in test [4] (setting [8]), 50 in test [4] (setting [9]) and 80 in test [4] (setting [10]). Further, the “Plant response rating, Morningglory” value in test [5] (setting [7]) came to 80; in test [5] (setting [8]), 100; in test [5] (setting [9]) it was 90; in test [5] (setting [10]) it was 100. In addition, the “Plant response rating, Barnyardgrass” value is given as 80 in test [6] (setting [7]), 95 in test [6] (setting [8]), 65 in test [6] (setting [9]) and 80 in test [6] (setting [10]).

As to `CC(C)c1nc(N)c(Cl)c(C(=O)[O-])n1.[Na+]` [Compound 109], the “Plant response rating, Pigweed” value is listed as 60 in test [1] (setting [7]), 85 in test [1] (setting [8]), 50 in test [1] (setting [9]) and 80 in test [1] (setting [10]). Besides, the “Plant response rating, Velvetleaf” value is 25 in test [2] (setting [7]), 80 in test [2] (setting [8]), 15 in test [2] (setting [9]) and 50 in test [2] (setting [10]). Besides, the “Plant response rating, Foxtail, Giant” value is 0 in test [3] (setting [7]), 10 in test [3] (setting [8]), 0 in test [3] (setting [9]) and 5 in test [3] (setting [10]). The “Plant response rating, Crabgrass” value stood at 0 in test [4] (setting [7]), 10 in test [4] (setting [8]), 0 in test [4] (setting [9]) and 25 in test [4] (setting [10]). The “Plant response rating, Morningglory” value is 70 in test [5] (setting [7]), 80 in test [5] (setting [8]), 30 in test [5] (setting [9]) and 95 in test [5] (setting [10]). Also, the “Plant response rating, Barnyardgrass” value in test [6] (setting [7]) is listed as 0; in test [6] (setting [8]), 10; in test [6] (setting [9]), 0; in test [6] (setting [10]), 25.

On to `COCCOCCOC(=O)c1nc(C2CC2)nc(N)c1Cl` [Compound 141], for which the “Plant response rating, Pigweed” value worked out at 90 in test [1] (setting [7]), 100 in test [1] (setting [8]), 80 in test [1] (setting [9]) and 85 in test [1] (setting [10]). Besides, the “Plant response rating, Velvetleaf” value in test [2] (setting [7]) worked out at 85; in test [2] (setting [8]), 100; in test [2] (setting [9]) it was 80; in test [2] (setting [10]), 85. In addition, the “Plant response rating, Foxtail, Giant” value in test [3] (setting [7]) is 40; in test [3] (setting [8]), 85; in test [3] (setting [9]), 5; in test [3] (setting [10]) it was 85. For the same compound, the “Plant response rating, Crabgrass” value in test [4] (setting [7]) was 25; in test [4] (setting [8]), 80; in test [4] (setting [9]), 60; in test [4] (setting [10]), 85. Besides, the “Plant response rating, Morningglory” value is recorded as 90 in test [5] (setting [7]), 90 in test [5] (setting [8]), 85 in test [5] (setting [9]) and 95 in test [5] (setting [10]). Also, the “Plant response rating, Barnyardgrass” value in test [6] (setting [7]) came out at 80; in test [6] (setting [8]), 90; in test [6] (setting [9]), 35; in test [6] (setting [10]), 75.

For `Cc1ccc(-c2nc(N)c(Br)c(C(=O)O)n2)cc1` [Compound 89], the “Plant response rating, Pigweed” value in test [1] (setting [7]) was found to be 50; in test [1] (setting [8]), 100; in test [1] (setting [9]), 80; in test [1] (setting [10]) it was 100. Also, the “Plant response rating, Velvetleaf” value in test [2] (setting [7]) is listed as 70; in test [2] (setting [8]), 95; in test [2] (setting [9]), 20; in test [2] (setting [10]), 75. For the same compound, the “Plant response rating, Foxtail, Giant” value was determined as 10 in test [3] (setting [7]), 45 in test [3] (setting [8]), 0 in test [3] (setting [9]) and 10 in test [3] (setting [10]). In addition, the “Plant response rating, Crabgrass” value was found to be 0 in test [4] (setting [7]), 10 in test [4] (setting [8]), 0 in test [4] (setting [9]) and 60 in test [4] (setting [10]). The “Plant response rating, Morningglory” value in test [5] (setting [7]) amounted to 0; in test [5] (setting [8]) it was 30; in test [5] (setting [9]), 0; in test [5] (setting [10]), 0. The “Plant response rating, Barnyardgrass” value in test [6] (setting [7]) is on record as 60; in test [6] (setting [8]), 85; in test [6] (setting [9]), 0; in test [6] (setting [10]), 50.

Turning to `CCOC(=O)COc1nc(C2CC2)nc(N)c1Cl` [Compound 115], the “Plant response rating, Pigweed” value in test [1] (setting [7]) is listed as 10; in test [1] (setting [8]) it was 45; in test [1] (setting [9]), 30; in test [1] (setting [10]) it was 40. Moreover, the “Plant response rating, Velvetleaf” value worked out at 30 in test [2] (setting [7]), 40 in test [2] (setting [8]), 5 in test [2] (setting [9]) and 10 in test [2] (setting [10]). Further, the “Plant response rating, Foxtail, Giant” value in test [3] (setting [7]), in test [3] (setting [8]), in test [3] (setting [9]) and in test [3] (setting [10]) was 0 in each case. Further, the “Plant response rating, Crabgrass” value in test [4] (setting [7]) was 0; in test [4] (setting [8]) it was 0; in test [4] (setting [9]), 0; in test [4] (setting [10]) it was 10. For the same compound, the “Plant response rating, Morningglory” value in test [5] (setting [7]) turned out to be 35; in test [5] (setting [8]), 60; in test [5] (setting [9]), 25; in test [5] (setting [10]) it was 35. Moreover, the “Plant response rating, Barnyardgrass” value in test [6] (setting [7]) was 0; in test [6] (setting [8]), 0; in test [6] (setting [9]) it was 0; in test [6] (setting [10]) it was 20.
